Data published in ChEMBL document CHEMBL1201862, “PubChem BioAssay data set” (2004).
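Compound exposure: 48 hours, 5 concentrations, 96-well plates. Abbreviation: GI50, concentration required for 50% inhibition of growth.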 The source made the active and inactive calls. Cut-off read from the data, not from the text of the source: active = GI50 up to about 1.1 µM and inactive = higher.

Legend:
Experiment in all cases: growth of human tumour cells (NCI), 48 h
786-0 = system: 786-0
CCRF-CEM = system: CCRF-CEM
COLO 205 = system: COLO 205
HCT-116 = system: HCT-116
K562 = system: K562
KM12 = system: KM12
M14 = system: M14
NCI-H226 = system: NCI-H226
OVCAR-5 = system: OVCAR-5
OVCAR-8 = system: OVCAR-8
SF-268 = system: SF-268
SK-MEL-5 = system: SK-MEL-5
SK-OV-3 = system: SK-OV-3
SNB-75 = system: SNB-75
SR = system: SR
A498 = system: A498

Measured: GI50

C=CCc1cc(OC)c2c(c1)C(O)CC(c1ccc(OC)c(OC)c1)O2 (centres undefined)
inactive: 786-0 > 100 µM | CCRF-CEM > 100 µM | COLO 205 > 100 µM | HCT-116 > 100 µM | K562 16.3 µM | KM12 > 100 µM | M14 > 100 µM | NCI-H226 > 100 µM | OVCAR-5 > 100 µM | OVCAR-8 > 100 µM | SF-268 > 100 µM | SK-MEL-5 58.3 µM | SK-OV-3 > 100 µM | SNB-75 89.5 µM | SR > 100 µM

COc1ccc(O)c2c1C(=O)CCCC2=O
inactive: 786-0 > 100 µM | A498 > 100 µM | CCRF-CEM > 100 µM | COLO 205 > 100 µM | HCT-116 > 100 µM | K562 > 100 µM | KM12 > 100 µM | M14 > 100 µM | OVCAR-5 > 100 µM | OVCAR-8 > 100 µM | SF-268 > 100 µM | SK-MEL-5 > 100 µM | SK-OV-3 > 100 µM

O=c1c(Sc2c(O)c3ccccc3c3ccccc3c2=O)c(O)c2ccccc2c2ccccc12
inactive: 786-0 37.2 µM | CCRF-CEM 14 µM | COLO 205 41.6 µM | K562 33.7 µM | KM12 93.1 µM | M14 46.6 µM | OVCAR-5 53.2 µM | OVCAR-8 45.3 µM | SF-268 20 µM | SK-MEL-5 29.9 µM | SK-OV-3 > 100 µM | SNB-75 > 100 µM

COc1cc(/C=C/C(=O)c2sc(NNC(C)=O)nc2C)ccc1O
inactive: 786-0 > 100 µM | A498 84.3 µM | CCRF-CEM > 100 µM | COLO 205 > 100 µM | K562 > 100 µM | KM12 > 100 µM | NCI-H226 > 100 µM | OVCAR-5 > 100 µM | OVCAR-8 > 100 µM | SF-268 > 100 µM | SK-MEL-5 > 100 µM | SK-OV-3 > 100 µM | SNB-75 > 100 µM

CCCN(CCC)c1c([N+](=O)[O-])cc(C(=O)N(CC)CC)cc1[N+](=O)[O-]
inactive: 786-0 27.5 µM | CCRF-CEM 20.8 µM | COLO 205 18.1 µM | HCT-116 13.6 µM | K562 12.6 µM | M14 23.2 µM | NCI-H226 23 µM | OVCAR-5 30.9 µM | OVCAR-8 18.3 µM | SF-268 17.6 µM | SK-MEL-5 13.3 µM | SK-OV-3 25.5 µM | SNB-75 21.3 µM | SR 14.8 µM

COc1ccc(C2=NN(C(C)=O)c3nc4ccccc4nc3O2)cc1
inactive: 786-0 15.2 µM | CCRF-CEM > 100 µM | COLO 205 > 100 µM | HCT-116 53.3 µM | K562 > 100 µM | KM12 > 100 µM | OVCAR-8 37.3 µM | SF-268 31.3 µM | SNB-75 6.28 µM | SR > 100 µM

CC(C)NC1CCCCC2c3ccccc3C12O (centres undefined)
inactive: 786-0 > 100 µM | CCRF-CEM > 100 µM | COLO 205 > 100 µM | HCT-116 > 100 µM | K562 > 100 µM | KM12 > 100 µM | M14 > 100 µM | NCI-H226 > 100 µM | OVCAR-8 > 100 µM | SF-268 > 100 µM | SK-MEL-5 > 100 µM | SK-OV-3 > 100 µM | SNB-75 > 100 µM | SR > 100 µM

CCCCCC#COC1CC(C)CC[C@@H]1C(C)C (some centres undefined)
inactive: 786-0 > 100 µM | CCRF-CEM 15.4 µM | COLO 205 > 100 µM | HCT-116 57.7 µM | K562 27.9 µM | KM12 98.9 µM | M14 > 100 µM | NCI-H226 > 100 µM | OVCAR-5 71.4 µM | OVCAR-8 > 100 µM | SF-268 > 100 µM | SK-MEL-5 > 100 µM | SK-OV-3 > 100 µM | SNB-75 75.9 µM

CCCCC[C@@H]1CCCC2NC(CCCCCO[Si](c3ccccc3)(c3ccccc3)C(C)(C)C)CCC21 (some centres undefined)
inactive: 786-0 18.1 µM | A498 17.3 µM | CCRF-CEM 7.82 µM | HCT-116 11.5 µM | K562 5.25 µM | KM12 12.5 µM | M14 14.1 µM | NCI-H226 18.7 µM | OVCAR-5 20.1 µM | OVCAR-8 17.1 µM | SF-268 17.9 µM | SK-MEL-5 18.4 µM | SK-OV-3 21.8 µM | SNB-75 16 µM

O=C1NC2OCC(O)C(O)C2O1 (centres undefined)
inactive: 786-0 > 100 µM | A498 > 100 µM | CCRF-CEM > 100 µM | COLO 205 > 100 µM | HCT-116 > 100 µM | K562 > 100 µM | KM12 > 100 µM | M14 > 100 µM | OVCAR-5 > 100 µM | OVCAR-8 > 100 µM | SF-268 > 100 µM | SK-MEL-5 > 100 µM | SK-OV-3 > 100 µM | SNB-75 > 100 µM | SR > 100 µM

C1=c2ccccc2=C2C(=C(c3ccccc3)C(c3ccccc3)=NN2c2ccccc2)S1
inactive: 786-0 58.6 µM | A498 > 100 µM | CCRF-CEM > 100 µM | COLO 205 > 100 µM | HCT-116 > 100 µM | K562 > 100 µM | KM12 > 100 µM | M14 > 100 µM | NCI-H226 > 100 µM | OVCAR-5 > 100 µM | OVCAR-8 > 100 µM | SF-268 > 100 µM | SK-MEL-5 > 100 µM | SK-OV-3 > 100 µM | SNB-75 > 100 µM
